Results taken from patent US8227508B2, “Dietary and pharmaceutical compositions containing carnosol and/or rosmanol and their uses” (DSM IP Assets B.V., priority 2006, dated 2012).

Legend:
mouse [1] = assay: Marble burying test; type: in vivo; conditions: 32 mg/kg i.p., −30 min
Protocol: The method applied here follows that described by Broekkamp et al. (1986). Mice (n=15 per treatment group) were individually placed in transparent plastic cages (33×21×18 cm) with 5 cm of sawdust on the floor and 25 marbles (diameter 1 cm) grouped in the centre of the cage. A second, up-turned, cage served as a lid. The number of marbles covered by sawdust (by at least two-thirds) was counted at the end of the 30-min test period. Tests were performed by investigators blind to the drug treatment protocol.
Prior to testing, all test cages and marbles were “impregnated” by leaving 10 naive mice in each cage for 15 minutes.
Carnosol (3, 10 and 30 mg/kg) and rosmanol (10, 30 and 100 mg/kg) were administered i.p. 30 min before the test, and compared with a vehicle control group. Fluoxetine (32 mg/kg), administered under the same experimental conditions, was used as a reference substance.

[2] = molecular target: T1, human glycine transporter 1b (GlyT1) (Homo sapiens, UniProt P48067); assay: Glycine uptake inhibition in CHO cells expressing GlyT1; type: cell-based; conditions: 60 nM [3H]-glycine, read-out: IC50 for tritiated glycine uptake
T1 construct: expressed in transfected cells; host or cells: CHO
T1 sequence (P48067 1-652 isoform P48067-3): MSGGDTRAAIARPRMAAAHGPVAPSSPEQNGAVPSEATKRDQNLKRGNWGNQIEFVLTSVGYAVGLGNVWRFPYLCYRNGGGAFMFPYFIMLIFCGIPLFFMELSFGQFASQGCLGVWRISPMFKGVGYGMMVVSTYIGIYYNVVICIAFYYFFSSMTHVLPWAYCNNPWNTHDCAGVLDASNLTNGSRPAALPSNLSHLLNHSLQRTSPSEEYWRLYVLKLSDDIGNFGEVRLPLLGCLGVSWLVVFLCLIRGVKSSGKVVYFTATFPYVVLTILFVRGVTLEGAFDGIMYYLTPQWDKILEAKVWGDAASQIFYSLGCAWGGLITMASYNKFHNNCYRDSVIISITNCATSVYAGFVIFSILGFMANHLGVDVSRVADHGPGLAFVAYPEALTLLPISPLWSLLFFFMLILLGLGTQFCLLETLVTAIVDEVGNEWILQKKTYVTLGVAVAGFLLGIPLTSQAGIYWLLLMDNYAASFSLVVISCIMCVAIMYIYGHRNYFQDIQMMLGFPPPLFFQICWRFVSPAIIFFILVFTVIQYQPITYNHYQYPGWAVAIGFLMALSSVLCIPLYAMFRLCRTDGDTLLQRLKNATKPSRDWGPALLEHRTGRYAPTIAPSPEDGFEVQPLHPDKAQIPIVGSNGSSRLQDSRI
Protocol: CHO cells stably expressing the human glycine transporter 1b cDNA (GlyT1) were routinely grown in Dulbecco's Modified Eagle's Medium (Invitrogen, Carlsbad, USA) containing 10% dialysed foetal calf serum, penicillin, streptomycin, proline and the antibiotic G418. Cells were harvested by trypsinisation one day prior to the assay and were seeded in the above mentioned medium. Immediately prior to the assay, the medium was replaced by uptake buffer containing 150 mM NaCl, 1 mM CaCl2, 2.5 mM KCl, 2.5 mM MgCl2, 10 mM Glucose and 10 mM N-2-hydroxyethylpiperazine-N′-2-ethanesulfonic acid (HEPES buffer).
Glycine uptake into the cells was determined by addition of 60 nM radiolabelled [^3H]-glycine (Amersham Biosciences GE Healthcare, Slough, UK) and incubation for 30 minutes at room temperature. Following removal of unincorporated label by gentle washing three times with the above buffer, incorporated glycine was quantified by liquid scintillation counting.

mouse [3] = assay: Porsolt's Forced Swim Test (FST); type: in vivo
Protocol: The Forced Swim Test (FST) was first reported in 1977 for screening of antidepressant-like compounds in rats (Porsolt et al 1977 Nature, 266:730-732) and, later, modified for testing mice (Porsolt et al 1977 Arch. Int. Pharmacodynamie, 229:327-336).
In two separate experiments, mice were tested following either i.p. or p.o. administration of carnosol. Mice were individually placed in a cylinder containing water (22° C.) from which they could not escape. The mice were placed in the water for 6 min and the duration of immobility during the last 4 min was measured. Ten to fifteen mice were studied per group. Carnosol was evaluated at 3, 10, 30 mg/kg body weight (i.p. 30 min before the test) or 200, 400, 600 mg/kg body weight (p.o., 24, 5 and 1 h before the test), and compared with vehicle control groups. Imipramine (32 mg/kg i.p., or p.o., respectively), administered under the same experimental conditions, was used as reference substance. Immobility and swimming time were assessed.

mouse [4] = assay: Four Plates Test; type: in vivo; conditions: 32 mg/kg p.o. −1 h (vehicle at −24 h and −5 h)
Description: The method, which detects anxiolytic activity, follows that described by Aron et al (1971, Neuropharmacology, 10:459-469). Anxiolytics (benzodiazepines) increase the number of punished crossings. Animals were placed individually in a white plastic enclosure containing a floor consisting of 4 metal plates connected to an electric shock generator (Apelex: type 011346). Each mouse was left to explore freely for 15 seconds. Then, every time it crossed from one plate to another, it received a weak electric shock (2.5 mA, 1.5 s). The number of punished crossings was counted during a 1 minute test. 15 mice were studied per group. The test was performed blind.
Carnosol was evaluated at 3 doses (200, 400, 600 mg/kg), administered p.o. 24 h, 5 h and 1 h before the test, and compared with a vehicle control (corn oil) group.
Clobazam (32 mg/kg p.o.), administered 1 h before the test, was used as reference substance. Mice in this group received additional administrations of vehicle at 24 h and 5 h before the test in order to maintain experimental blinding.

CNCCC(Oc1ccc(C(F)(F)F)cc1)c1ccccc1 (stereo not drawn) [Fluoxetine, fluoxetine, reference compound]
Number of marbles buried (% change from control) (mouse [1]): −92%

CN(CC[C@@H](Oc1ccc(C(F)(F)F)cc1)c1ccccc1)CC(=O)O [ORG24598, reference compound]
IC50 [2]: 20 nM

CN(C)CCCN1c2ccccc2CCc2ccccc21 [imipramine, reference compound]
Duration of immobility (% change from control) (mouse [3]; 32 mg/kg i.p., −30 min): −80% | Duration of immobility (% change from control) (mouse [3]; 32 mg/kg p.o., −24, −5, −1 h): −48%

CN1C(=O)CC(=O)N(c2ccccc2)c2cc(Cl)ccc21 [Clobazam, reference compound]
Number of punished crossings, % change from control (mouse [4]): +118% | Number of punished crossings, mean (mouse [4]): 6.1
